*1 amine or outer side, *2 acyl side, *3 side chain or, on linkers, in order; H or OH if unused. Primed or numbered codes have the meaning given here. Where no end group is shown, it is not given here. Side-chain parts run from the residue outwards. [ ]: non-standard residue; d: D form. The star is where a group is joined. C20 diacid = O=C(O)CCCCCCCCCCCCCCCCCCC(=O)*; γGlu = O=C(O)[C@H](CCC(=O)[*:2])N[*:1]; PEG2′ = not defined here; Aib = CC(C)(N)C(=O)O
What was measured:
db/db diabetic mice [1] = experiment: Treatment of 12-week-old db/db diabetic mice: blood glucose, OGTT, ITT, ALT/AST, diabetic nephropathy indices; format: in vivo; conditions: for weekly blood glucose (hypoglycemic effect): FIG. 4A, blood glucose at normal levels at week 1; for weekly blood glucose (hypoglycemic effect) / improving oral glucose tolerance (OGTT) / improving insulin resistance (ITT) / ALT and AST in serum (hepatoprotective function): 120 μg/kg s.c. daily; for improving oral glucose tolerance (OGTT): FIG. 4B, week 4; for improving insulin resistance (ITT): FIG. 4C, week 5; for ALT and AST in serum (hepatoprotective function): FIG. 4D; for H&E staining of kidneys: glomerular adhesion, ameliorative and therapeutic effects: FIG. 5B; for H&E staining of kidneys: glomerular adhesion, ameliorative and therapeutic effects / PAS staining of kidneys: ameliorative effects on glomerular mesangial region / collagen content (Sirius red, FN and α-SMA staining of kidneys): after 8 weeks; for H&E staining of kidneys: glomerular adhesion, ameliorative and therapeutic effects / collagen content (Sirius red, FN and α-SMA staining of kidneys): compared to semaglutide, SAR425899 and MED C18-acid groups; for PAS staining of kidneys: ameliorative effects on glomerular mesangial region: FIG. 5C; for collagen content (Sirius red, FN and α-SMA staining of kidneys): FIGS. 5D to 5F
Description: Normal mice born in the same litter; DC group: db/db mice control group). Blood glucose and body weight were measured on alternate days after daily administration of the medicament, and water intake and food intake were measured once a week. OGTT was measured at week 4, insulin tolerance (ITT) was measured at week 5, metabolism of mice was examined using mouse metabolic cages at weeks 6-7, and various serological and pathological indices were taken at week 8.
Type 2-diabetes mice were characterized by obesity, insulin resistance, hyperglycemia, dyslipidemia and hepatic fat vacuole-like degeneration.
After 6 weeks of medical treatment, the mice was collected for urine using metabolic cages, and the protein content in the urine was detected using relevant kits. After 7 weeks of medical treatment, the material was taken and blood was used to detect serological indicators such as blood creatinine and urea nitrogen.

db/db diabetic mice [2] = experiment: Dose determination in 8-week-old db/db diabetic mice: blood glucose and body weight; format: in vivo; conditions: for subsequent blood glucose course (long-lasting effect): from day 3 / after days 3-5
Description: The db/db mice diabetic model (purchased from Nanjing University-Nanjing Institute of Biomedical Research, about 8 weeks, and blood glucose and body weight were measured to ensure the smooth subsequent experiments) was obtained, and the model mice were randomly divided into 12 groups (including polypeptide compounds 3, 8, 13, 15, semaglutide and physiological saline groups), with 6 mice in each group and no difference in basal body weight and blood glucose. Each group was injected subcutaneously with compound 3 (80 and 120 μg/kg, 2 groups), compound 8 (80 and 120 μg/kg, 2 groups), compound 13 (80 and 120 μg/kg, 2 groups), compound 15 (80 and 120 μg/kg, 2 groups), semaglutide (80 and 120 μg/kg, 2 groups) and physiological saline (DN group: normal mice born in the same litter; DC group: db/db mice control group) every day or every other day.
Blood glucose and body weight of mice were measured after daily administration and 6 h fasting on alternate days.

C57BL/6J mice = experiment: Oral glucose tolerance (OGTT), repeated glucose loads followed to 24 h after one s.c. dose; format: in vivo; conditions: four OGTT curves (0-22 h); 100 μg/kg subcutaneously
Description: Eight-week-old male C57BL/6J mice (Model Animal Research Center, Nanjing University) were randomly grouped according to similar blood glucose (assessed by blood samples obtained from the tail tip), with six mice in each group. […] The initial blood samples (fasted blood glucose levels) were obtained after about 4 h. Subsequently, an oral dose of glucose (2 g/kg) was administered and the animals were placed back in their holding cages (t=0). […] The oral dose of glucose was then repeated at 8 h of administration, 12 h of administration and […], and blood glucose changes were detected and followed until 24 hours. The data were processed using the software GraphPadPrism to make a line graph of blood glucose changes, and the area under the curve was calculated to obtain an AUC graph, and the results are shown in FIG. 1.

FN protein (fibronectin) = experiment: Western blot of FN protein in high glucose-induced in vitro renal fibrosis cell model; format: cell-based, rat; conditions: 10 μM; 30 mmol/L glucose; 48 h; mesangial and renal epithelial cells
From the text: Hyperglycemia and increased production of glycosylation end products will cause morphological changes such as proliferation and hypertrophy of glomerular mesangial cells, increase in extracellular matrix (ECM) and mesangial expansion, which will eventually lead to the loss of its physiological function. […] Therefore, this example used high glucose to induce MCS mesangial cells and NRK renal epithelial cells to construct an in vitro renal fibrosis cell model for screening medicaments useful for the treatment of diabetic nephropathy. The renal mesangial cell strain GMC and glomerular epithelial cells mTEC used in this example were both cells kept in the applicant's laboratory (both were extracted from rat renal primary cells) and cultured in low sugar medium containing 10% fetal bovine serum. The cells were starved with serum-free culture medium for 24 h when grew to 70% confluence. The cells were divided into the following 9 groups by adjusting the glucose concentration as follows: […]

[3] = FIG. 3A, daily s.c., 120 μg/kg, vs saline DC group
[4] = FIG. 3B, every other day s.c., 80 μg/kg
[5] = FIG. 3B, every other day s.c., 120 μg/kg

Substance: His-(D-Ser)-Gln-Gly-Thr-Phe-Thr-Ser-Asp-Lys(Gly-Gly-Ser-Gly-Ser-Gly-γGlu-CO(CH2)18-COOH)-Ser-Lys-Tyr-Leu-Glu-Aib-Lys-Ala-Ala-Gln-Asp-Phe-Val-Glu-Trp-Leu-Lys-Ala-Gly-Gly-Pro-Ser-Ser-Gly-Ala-Pro-Pro-Pro-Ser (H[dS]QGTFTSDKSKYLE[Aib]KAAQDFVEWLKAGGPSSGAPPPS; not fully specified (residue 10, C-terminus)) [Compound 13]
- weekly blood glucose (hypoglycemic effect) (db/db diabetic mice [1]): significant hypoglycemic effects
- improving oral glucose tolerance (OGTT) (db/db diabetic mice [1]): performed more excellent
- improving insulin resistance (ITT) (db/db diabetic mice [1]): performed more excellent
- ALT and AST in serum (hepatoprotective function) (db/db diabetic mice [1]): more excellent hepatoprotective functions
- H&E staining of kidneys: glomerular adhesion, ameliorative and therapeutic effects (db/db diabetic mice [1]): more significant
- PAS staining of kidneys: ameliorative effects on glomerular mesangial region (db/db diabetic mice [1]): more significant
- collagen content (Sirius red, FN and α-SMA staining of kidneys) (db/db diabetic mice [1]): improved more significantly
- body weight (weight-lowering effect) (db/db diabetic mice [2]; FIG. 3A, daily s.c.): better weight-lowering effect
- weight-lowering effect relative to compounds 3 and 8 (db/db diabetic mice [2]; FIG. 3A, daily s.c.): superior to that of compounds 3 and 8
- blood glucose (glucose-lowering effect) (db/db diabetic mice [2]; FIG. 3A, daily s.c., 80 μg/kg): significant glucose-lowering effect with long-lasting effect
- blood glucose (glucose-lowering effect) (db/db diabetic mice [2]; [3]): good glucose-lowering effect in 3-5 days
- effect relative to polypeptide compounds 3 and 8 (db/db diabetic mice [2]; FIG. 3B, every other day s.c.): better than that of polypeptide compounds 3 and 8
- overall hypoglycemic effect (db/db diabetic mice [2]; FIG. 3B, every other day s.c.): more excellent hypoglycemic effect
- blood glucose (hypoglycemic effect) (db/db diabetic mice [2]; [4]): significant hypoglycemic effect on day 3, but the subsequent blood glucose level did not change much and tended to be stable
- blood glucose (hypoglycemic effect) (db/db diabetic mice [2]; [5]): good hypoglycemic effect on days 3-5
- subsequent blood glucose course (long-lasting effect) (db/db diabetic mice [2]; [5]): kept good hypoglycemic effect
- long-acting hypoglycemic effects compared to semaglutide (C57BL/6J mice): superior and significant long-acting hypoglycemic effects
- FN protein expression (Western blot) (FN protein (fibronectin)): inhibited FN expression more significantly

Substance: His-(D-Ser)-Gln-Gly-Thr-Phe-Thr-Ser-Asp-Lys(PEG2-PEG2-γGlu-CO(CH2)18CO2H)-Ser-Lys-Tyr-Leu-Glu-Aib-Lys-Ala-Ala-Gln-Asp-Phe-Val-Glu-Trp-Leu-Lys-Ala-Gly-Gly-Pro-Ser-Ser-Gly-Ala-Pro-Pro-Pro-Ser-NH2 (H[dS]QGTFTSDK([PEG2′-PEG2′-γGlu-C20 diacid])SKYLE[Aib]KAAQDFVEWLKAGGPSSGAPPPS-NH2) [Compound 3]
- weekly blood glucose (hypoglycemic effect) (db/db diabetic mice [1]): significant hypoglycemic effects
- improving oral glucose tolerance (OGTT) (db/db diabetic mice [1]): performed more excellent
- improving insulin resistance (ITT) (db/db diabetic mice [1]): performed more excellent
- ALT and AST in serum (hepatoprotective function) (db/db diabetic mice [1]): more excellent hepatoprotective functions
- H&E staining of kidneys: glomerular adhesion, ameliorative and therapeutic effects (db/db diabetic mice [1]): more significant
- PAS staining of kidneys: ameliorative effects on glomerular mesangial region (db/db diabetic mice [1]): more significant
- collagen content (Sirius red, FN and α-SMA staining of kidneys) (db/db diabetic mice [1]): improved more significantly
- body weight (weight-lowering effect) (db/db diabetic mice [2]; FIG. 3A, daily s.c.): better weight-lowering effect
- blood glucose (glucose-lowering effect) (db/db diabetic mice [2]; FIG. 3A, daily s.c., 80 μg/kg): significant glucose-lowering effect
- blood glucose (glucose-lowering effect) (db/db diabetic mice [2]; [3]): good glucose-lowering effect in 3-5 days
- overall hypoglycemic effect (db/db diabetic mice [2]; FIG. 3B, every other day s.c.): more excellent hypoglycemic effect
- blood glucose (hypoglycemic effect) (db/db diabetic mice [2]; [4]): first decrease and then increase, and the overall hypoglycemic effect was significant
- blood glucose (hypoglycemic effect) (db/db diabetic mice [2]; [5]): good hypoglycemic effect on days 3-5
- subsequent blood glucose course (long-lasting effect) (db/db diabetic mice [2]; [5]): the blood glucose did not change much
- long-acting hypoglycemic effects compared to semaglutide (C57BL/6J mice): superior and significant long-acting hypoglycemic effects
- FN protein expression (Western blot) (FN protein (fibronectin)): inhibited FN expression more significantly

From patent US20230183310A1, “Polypeptide Compounds and Use Thereof in the Prevention or Treatment of Diabetes or Diabetic Complications” (Shenzhen Turier Biotech Co., Ltd., priority 2020, published 2023)
